Molecules are shown by their SMILES. *1 amine or outer side, *2 acyl side, *3 side chain or, on linkers, in order; H or OH if unused. Where a SMILES comes first, the peptide text is derived from it. Bridges are numbered along the chain shown (N, C = ends). [ ]: non-standard residue; d: D form. The star is where a group is joined. cBu(1-CO,cis-3-CH2NH) = O=C([C@H]1C[C@@H](CN[*:1])C1)[*:2]; Phe(4-guanidino) = N=C(N)Nc1ccc(C[C@H](N)C(=O)O)cc1; X22 = CNC(=N)N(C)CCC[C@@H](C(=O)[*:2])N(C)[*:1]; NMe3Pal(6-Me) = CN[C@@H](Cc1ccc(C)nc1)C(=O)O; NMeHis(τ-Me) = CN[C@@H](Cc1cn(C)cn1)C(=O)O; X20 = CN([C@@H](Cc1cnco1)C(=O)[*:2])[*:1]; X3 = CN([C@@H](Cc1cncnc1)C(=O)[*:2])[*:1]; Ethyl(2-pyrrolidin-1-yl) = C1CCN(CC*)C1; NMeArg(Me) = CNC(=N)NCCC[C@H](NC)C(=O)O; Phe(2-CN) = N#Cc1ccccc1C[C@H](N)C(=O)O; X47 = O=C([C@H](Cc1ccoc1)N[*:1])[*:2]; X12 = CC(=O)NCCCN(CC(=O)[*:2])[*:1]; X38 = NC(=O)CCCN(CC(=O)[*:2])[*:1]; NMeOrn(Me) = CNCCC[C@H](NC)C(=O)O; NMeF = CN[C@@H](Cc1ccccc1)C(=O)O; 3Pal = N[C@@H](Cc1cccnc1)C(=O)O; Gly(N(CH2)3NH2) = NCCCNCC(=O)O; Ahp(2) = CCCCC[C@H](N)C(=O)O; Cba = N[C@@H](CC1CCC1)C(=O)O; αMeC = C[C@](N)(CS)C(=O)O; Nle = CCCC[C@H](N)C(=O)O; Pyrrolidide = C1CCN(*)C1

KRAS-G12D protein, sequence (P01116 1-188 isoform P01116-2 G12D): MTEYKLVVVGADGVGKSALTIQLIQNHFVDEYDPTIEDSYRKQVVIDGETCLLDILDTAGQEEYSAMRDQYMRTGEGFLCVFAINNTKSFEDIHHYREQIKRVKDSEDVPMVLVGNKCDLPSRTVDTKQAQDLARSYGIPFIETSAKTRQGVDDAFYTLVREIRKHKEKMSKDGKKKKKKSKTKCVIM

This assay concerns the target KRAS-G12D protein (Homo sapiens, UniProt P01116, G12D). Kind of assay: SOS-mediated nucleotide exchange assay (BODIPY-GDP / Tb-streptavidin TR-FRET). In kind it is biochemical. Background: TR-FRET usually uses a lanthanide donor and a delayed reading to cut background.
By EC50 is commonly meant the midpoint of the concentration-response curve. `CCCCC[C@@H]1NC(=O)[C@H](Cc2ccc(OC)cc2)NC(=O)[C@H](CC2CCC2)NC(=O)[C@H](Cc2cccnc2)NC(=O)[C@H](CCCNC(=N)N)NC(=O)[C@H](Cc2ccccc2F)NC(=O)CSC[C@@](C)(C(N)=O)NC(=O)[C@H](Cc2ccccc2)N(C)C1=O` [compound 370, cyclo(Phe2F-R-3Pal-cBuA-TyrOMe-Ahp-NMeF-aMeCl-ClAc)] displayed a 50% effective concentration (EC50) of 14.9 nM.
The same measure for `CCCCC[C@@H]1NC(=O)[C@H](Cc2ccc(OC)cc2)NC(=O)[C@H](CC2CCC2)NC(=O)[C@H](Cc2ccoc2)NC(=O)[C@H](CCCNC(=N)N)NC(=O)[C@H](Cc2ccccc2)NC(=O)CSC[C@@](C)(C(N)=O)NC(=O)[C@H](Cc2ccccc2)N(C)C1=O` [compound 371, cyclo(F-R-Ala3Fur-cBuA-TyrOMe-Ahp-NMeF-aMeCl-ClAc)]: 82.6 nM; for `CCCCC[C@@H]1NC(=O)[C@H](Cc2ccc(OC)cc2)NC(=O)[C@H](CC2CCC2)NC(=O)[C@H](Cc2cnn(C)c2)NC(=O)[C@H](CCCNC(=N)N)NC(=O)[C@H](Cc2ccccc2)NC(=O)CSC[C@@](C)(C(N)=O)NC(=O)[C@H](Cc2ccccc2)N(C)C1=O` [compound 372, cyclo(F-R-Ala4PyzlMe-cBuA-TyrOMe-Ahp-NMeF-aMeCl-ClAc)]: 10.2 nM; for `CCCCC[C@@H]1NC(=O)[C@H](CC(=O)N2CCCC2)NC(=O)[C@H](CC2CCC2)NC(=O)[C@H](Cc2cccnc2)NC(=O)[C@H](CCCNC(=N)N)NC(=O)[C@H](Cc2ccccc2)NC(=O)CSC[C@@](C)(C(N)=O)NC(=O)[C@H](Cc2ccccc2)N(C)C1=O` [compound 373, cyclo(F-R~3Pal-cBuA-PyD-Ahp-NMeF-aMeCl-ClAc)] ({CH2CO}-FR[3Pal][Cba]D(Pyrrolidide)[Ahp(2)][NMeF][αMeC]-NH2; thioether N-8): 1970 nM.
The same measure for `CCCCC[C@@H]1NC(=O)[C@H](Cc2ccoc2)NC(=O)[C@H](CC2CCC2)NC(=O)[C@H](Cc2cccnc2)NC(=O)[C@H](CCCNC(=N)N)NC(=O)[C@H](Cc2ccccc2)NC(=O)CSC[C@@](C)(C(N)=O)NC(=O)[C@H](Cc2ccccc2)N(C)C1=O` [compound 374, cyclo(F-R-3Pal-cBuA-Ala3Fur-Ahp-NMeF-aMeCl-ClAc)] ({CH2CO}-FR[3Pal][Cba][X47][Ahp(2)][NMeF][αMeC]-NH2; thioether N-8): 69.8 nM.
The same measure for `CCCCC[C@@H]1NC(=O)[C@H](Cc2ccccc2C#N)NC(=O)[C@H](CC2CCC2)NC(=O)[C@H](Cc2cccnc2)NC(=O)[C@H](CCCNC(=N)N)NC(=O)[C@H](Cc2ccccc2)NC(=O)CSC[C@@](C)(C(N)=O)NC(=O)[C@H](Cc2ccccc2)N(C)C1=O` [compound 375, cyclo(F-R-3Pal-cBuA-Phe2CN-Ahp-NMeF-aMeCl-ClAc)] ({CH2CO}-FR[3Pal][Cba][Phe(2-CN)][Ahp(2)][NMeF][αMeC]-NH2; thioether N-8): 57.9 nM.
On to `CCCCC[C@@H]1NC(=O)[C@H](Cc2ccc(OC)cc2)NC(=O)[C@H](CC2CCC2)NC(=O)[C@H](Cc2cccnc2)NC(=O)[C@H](CCCNC(=N)N)NC(=O)[C@H](Cc2ccccc2)NC(=O)CSC[C@@](C)(C(N)=O)NC(=O)[C@H](Cc2cncnc2)N(C)C1=O` [compound 376, cyclo(F-R-3Pal-cBuA-TyrOMe-Ahp-NMeAlaPyrim-aMeCl-ClAc)] ({CH2CO}-FR[3Pal][Cba]Y(Me)[Ahp(2)][X3][αMeC]-NH2; thioether N-8), for which the half-maximal effective concentration (EC50) came out at 26.6 nM.
The same measure for `CCCCC[C@@H]1NC(=O)[C@H](Cc2ccc(OC)cc2)NC(=O)[C@H](CC2CCC2)NC(=O)[C@H](Cc2cccnc2)NC(=O)[C@H](CCCNC(=N)N)NC(=O)[C@H](Cc2ccccc2)NC(=O)CSC[C@@](C)(C(N)=O)NC(=O)[C@H](Cc2ccc(C)nc2)N(C)C1=O` [compound 377, cyclo(F-R-3Pal-cBuA-TyrOMe-Ahp-NMe3Pal4Me-aMeCl-ClAc)] ({CH2CO}-FR[3Pal][Cba]Y(Me)[Ahp(2)][NMe3Pal(6-Me)][αMeC]-NH2; thioether N-8): 8.11 nM; for `CCCCC[C@@H]1NC(=O)[C@H](Cc2ccc(OC)cc2)NC(=O)[C@H](CC2CCC2)NC(=O)[C@H](Cc2cccnc2)NC(=O)[C@H](CCCNC(=N)N)NC(=O)[C@H](Cc2ccccc2)NC(=O)CSC[C@@](C)(C(N)=O)NC(=O)[C@H](Cc2cn(C)cn2)N(C)C1=O` [compound 378, cyclo(F-R-3Pal-cBuA-TyrOMe-Ahp-NMeHis1Me-aMeCl-ClAc)] ({CH2CO}-FR[3Pal][Cba]Y(Me)[Ahp(2)][NMeHis(τ-Me)][αMeC]-NH2; thioether N-8): 45.2 nM; for `CCCCC[C@@H]1NC(=O)[C@H](Cc2ccc(OC)cc2)NC(=O)[C@H](CC2CCC2)NC(=O)[C@H](Cc2cccnc2)NC(=O)[C@H](CCCNC(=N)N)NC(=O)[C@H](Cc2ccccc2)NC(=O)CSC[C@@](C)(C(N)=O)NC(=O)[C@H](Cc2cnco2)N(C)C1=O` [compound 379, cyclo(F-R-3Pal-cBuA-TyrOMe-Ahp-NMeAla5Oxa-aMeCl-ClAc)] ({CH2CO}-FR[3Pal][Cba]Y(Me)[Ahp(2)][X20][αMeC]-NH2; thioether N-8): 48.9 nM.
The same measure for `CCCCC[C@@H]1NC(=O)[C@H](Cc2ccc(OC)cc2)NC(=O)[C@H](CC2CCC2)NC(=O)[C@H](Cc2ccc(NC(=N)N)cc2)NC(=O)[C@H](CCCNC(=N)NC)N(C)C(=O)[C@H](Cc2ccccc2)NC(=O)CSC[C@@](C)(C(N)=O)NC(=O)[C@H](Cc2ccccc2)N(C)C1=O` [compound 380, cyclo(F-NMeArgMe-Phe4Gn-cBuA-TyrOMe-Abp-NMeF-aMeCl-ClAc)] ({CH2CO}-F[NMeArg(Me)][Phe(4-guanidino)][Cba]Y(Me)[Ahp(2)][NMeF][αMeC]-NH2; thioether N-8): 1.68 nM.
In turn, `CCCCC[C@@H]1NC(=O)[C@H](Cc2ccc(OC)cc2)NC(=O)[C@H](CC2CCC2)NC(=O)[C@H](Cc2ccc(NC(=N)N)cc2)NC(=O)[C@H](CCCN(C)C(=N)NC)N(C)C(=O)[C@H](Cc2ccccc2)NC(=O)CSC[C@@](C)(C(N)=O)NC(=O)[C@H](Cc2ccccc2)N(C)C1=O` [compound 381, cyclo(F-NMeArg1MeMe-Phe4Gn-cBuA-TyrOMe-Ahp-NMeF-aMeCl-ClAc)] ({CH2CO}-F[X22][Phe(4-guanidino)][Cba]Y(Me)[Ahp(2)][NMeF][αMeC]-NH2; thioether N-8) had an EC50 of 1.69 nM.
For `CCCCC[C@@H]1NC(=O)[C@H](Cc2ccc(OC)cc2)NC(=O)[C@H](CC2CCC2)NC(=O)[C@H](Cc2ccc(N(C)C(=N)NC)cc2)NC(=O)[C@H](CCCNC(=N)N)NC(=O)[C@H](Cc2ccccc2)NC(=O)CSC[C@@](C)(C(N)=O)NC(=O)[C@H](Cc2ccccc2)N(C)C1=O` [compound 382, cyclo(F-R-Phe4GnMeMe-cBuA-TyrOMe-Ahp-NMeF-aMeCl-ClAc)] the value was 1.6 nM; for `CCCCC[C@@H]1NC(=O)[C@H](Cc2ccc(OC)cc2)NC(=O)[C@H](CC2CCC2)NC(=O)[C@H](Cc2ccc(OCCN3CCCC3)cc2)NC(=O)[C@H](CCCNC(=N)N)NC(=O)[C@H](Cc2ccccc2)NC(=O)CSC[C@@](C)(C(N)=O)NC(=O)[C@H](Cc2ccccc2)N(C)C1=O` [compound 383, cyclo(F-R-TyrOEtPyr-cBuA-TyrOMe-Ahp-NMeF-aMeCl-ClAc)] ({CH2CO}-FRY(Ethyl(2-pyrrolidin-1-yl))[Cba]Y(Me)[Ahp(2)][NMeF][αMeC]-NH2; thioether N-8), 9.79 nM.
`CCCC[C@@H]1NC(=O)[C@H](Cc2ccc(NC(=N)N)cc2)NC(=O)[C@H](CCCN(C)C(=N)NC)N(C)C(=O)[C@H](Cc2ccccc2)NC(=O)[C@H]2C[C@@H](CNC(=O)[C@H](Cc3ccccc3)N(C)C(=O)[C@H](CCCC)NC(=O)[C@H](Cc3ccc(OC)cc3)NC1=O)C2` [compound 384, cyclo(F-NMeArg1MeMe-Phe4Gn-Nle-TyrOMe-Nle-NMeF-c3amCblc)] (cyclo(F[X22][Phe(4-guanidino)][Nle]Y(Me)[Nle][NMeF][cBu(1-CO,cis-3-CH2NH)])) showed a concentration giving a half-maximal response (EC50) of 181 nM.
The same measure for `CCCCC[C@@H]1NC(=O)[C@H](Cc2ccc(OC)cc2)NC(=O)[C@H](CC2CCC2)NC(=O)[C@H](Cc2ccc(NC(=N)N)cc2)NC(=O)[C@H](CCCNC)N(C)C(=O)[C@H](Cc2ccccc2)NC(=O)CSC[C@@](C)(C(N)=O)NC(=O)[C@H](Cc2ccccc2)N(C)C1=O` [compound 385, cyclo(F-NMeOrnMe-Phe4Gn-cBuA-TyrOMe-Ahp-NMeF-aMeCl-ClAc)] ({CH2CO}-F[NMeOrn(Me)][Phe(4-guanidino)][Cba]Y(Me)[Ahp(2)][NMeF][αMeC]-NH2; thioether N-8): 19.7 nM.
The same measure for `CCCCC[C@@H]1NC(=O)[C@H](Cc2ccc(OC)cc2)NC(=O)[C@H](CC2CCC2)NC(=O)[C@H](Cc2ccc(NC(=N)N)cc2)NC(=O)CN(CCCC(N)=O)C(=O)[C@H](Cc2ccccc2)NC(=O)CSC[C@@](C)(C(N)=O)NC(=O)[C@H](Cc2ccccc2)N(C)C1=O` [compound 386, cyclo(F-Cmpg-Phe4Gn-cBuA-TyrOMe-Abp-NMeF-aMeCl-ClAc)] ({CH2CO}-F[X38][Phe(4-guanidino)][Cba]Y(Me)[Ahp(2)][NMeF][αMeC]-NH2; thioether N-8): 134 nM.
The same measure for `CCCCC[C@@H]1NC(=O)[C@H](Cc2ccc(OC)cc2)NC(=O)[C@H](CC2CCC2)NC(=O)[C@H](Cc2ccc(NC(=N)N)cc2)NC(=O)CN(CCCNC(C)=O)C(=O)[C@H](Cc2ccccc2)NC(=O)CSC[C@@](C)(C(N)=O)NC(=O)[C@H](Cc2ccccc2)N(C)C1=O` [compound 387, cyclo(F-AcApG-Phe4Gn-cBuA-TyrOMe-Ahp-NMcF-aMeCl-ClAc)] ({CH2CO}-F[X12][Phe(4-guanidino)][Cba]Y(Me)[Ahp(2)][NMeF][αMeC]-NH2; thioether N-8): 164 nM.
In turn, `CCCCC[C@@H]1NC(=O)[C@H](Cc2ccc(OC)cc2)NC(=O)[C@H](CC2CCC2)NC(=O)[C@H](Cc2ccc(NC(=N)N)cc2)NC(=O)CN(CCCN)C(=O)[C@H](Cc2ccccc2)NC(=O)CSC[C@@](C)(C(N)=O)NC(=O)[C@H](Cc2ccccc2)N(C)C1=O` [compound 388, cyclo(F-NPrNH2G-Phe4Gn-cBuA-TyrOMe-Ahp-NMeF-aMeCl-ClAc)] ({CH2CO}-F[Gly(N(CH2)3NH2)][Phe(4-guanidino)][Cba]Y(Me)[Ahp(2)][NMeF][αMeC]-NH2; thioether N-8) came in with an EC50 of 121 nM.

Source of the values: patent US20260001914A1, “MACROCYCLIC PEPTIDES TARGETING KRAS” (Merck Sharp & Dohme LLC, priority 2022, published 2026).
